Results on 1 molecule are retold here after patent US11124499B2, “Pharmaceutical composition derived from Tecoma plant and a method for treating cancer” (National Guard Health Affairs, priority 2018, dated 2021).

Broadly, the IC50 is the concentration at which inhibition is half-maximal. Low values mean higher potency, high ones lower potency.

The subject of one series is MCF-7. Nature of the series: MTT cytotoxicity, MCF-7. It counts as cell-based. The conditions noted are these: MCF7, MCF-7, human breast adenocarcinoma, 12 h exposure, mean±SD of three trials. As for the experimental part: (§1) The cytotoxicity of Tecomaphorbide was tested against various cultured cell lines. Cells were exposed to various concentrations of Tecomaphorbide (ranging from 0.0 to 4.0 μM) for 12 h. Subsequently, the exposed cells were incubated with MTT reagent for 4 h and the developed color was analyzed spectrophotometrically. IC50 was determined from the sigmoidal curve of blotting percentage of cell viability versus the logarithm of concentration in μM using Graphpad Prism 6 program. The determined values summarized in Table 2 are the mean±SD value obtained from three independent trials.

The test system of the next series is normal primary T-cells. Nature of the series: Apoptosis in normal primary T-cells (FIG. 2). It counts as cell-based, human. The source says:
(§2) FIG. 2 is a bar graph summarizing the effect of compound Tecomaphorbide on apoptosis in human acute leukemia T-cells (Jurkat cells) and normal primary T-cells.

Another series concerns Caco-2. Nature of the series: MTT cytotoxicity, Caco-2. Format: cell-based. As to conditions: Caco-2, human colorectal adenocarcinoma, 12 h exposure, mean±SD of three trials. As for the experimental part:
as §1

The next series deals with K562. Put plainly: MTT cytotoxicity, K562. Format: cell-based. As to conditions: K562, human chronic myelogenous leukemia, 12 h exposure, mean±SD of three trials. As for the experimental part: as §1
The test system of another series is PC-3. Put plainly: MTT cytotoxicity, PC-3. It counts as cell-based. As to conditions: PC-3, human prostate adenocarcinoma, 12 h exposure, mean±SD of three trials. As for the experimental part:
as §1

Series [1] concerns T-Cell Acute lymphocytic leukemia cell line (Jurkat). Nature of the series: Apoptosis in Jurkat cells (FIG. 2). It counts as cell-based, human.
Text: as §2

The next series relates to HL-60. Nature of the series: MTT cytotoxicity, HL-60. Format: cell-based. As to conditions: HL-60, human acute promyelocytic leukemia, 12 h exposure, mean±SD of three trials. As for the experimental part: as §1
In a further series the test system is MOLM-13. Put plainly: MTT cytotoxicity, MOLM-13. Format: cell-based. The conditions noted are these: MOLM-13, human acute monocytic leukemia, 12 h exposure, mean±SD of three trials. As for the experimental part:
as §1

Another series relates to U937. Put plainly: MTT cytotoxicity, U937. It counts as cell-based. As to conditions: U-937, U937, human histiocytic lymphoma, 12 h exposure, mean±SD of three trials. As for the experimental part:
as §1

In another series the test system is MV4-11. Put plainly: MTT cytotoxicity, MV4-11. It counts as cell-based. The conditions noted are these: MV4-11, human B myelomonocytic leukemia, 12 h exposure, mean±SD of three trials. As for the experimental part:
as §1

A further series concerns Jurkat. Nature of the series: MTT cytotoxicity, Jurkat. Format: cell-based. As to conditions: human acute T cell leukemia, 12 h exposure, mean±SD of three trials. As for the experimental part: as §1

Regarding `C=Cc1c(C=O)c2cc3nc(c4c5[nH]c(cc6nc(cc1[nH]2)C(C)=C6CC)c(C)c5C(=O)C4C(=O)OCC)C(CCC(=O)OC)C3C` (centres unmarked) [Tecomaphorbide], the IC50 is 2660 ± 480 nM with MCF-7; 2830 ± 620 nM in the series on Caco-2; 1530 ± 190 nM in the series with K562; 1940 ± 350 nM in the series on PC-3; 460 ± 110 nM in the series with HL-60; 580 ± 170 nM in the series with MOLM-13. In addition, the IC50 with U937 is 1380 ± 320 nM; in the series with MV4-11 it was 620 ± 140 nM; in the series on Jurkat it was 1210 ± 240 nM. For the same molecule, the effect on apoptosis entry is given as “minimal impact” with normal primary T-cells and “able to induce apoptosis” in [1].
